{
  "source": "patent US10653679B2",
  "about": "“Compositions and methods for inhibiting bacterial growth” (priority 2015, dated 2020)",
  "key": {"PhoPR regulon [1]": {"system": "PhoPR regulon", "assay": "Quantitative single-cell imaging of reporter fluorescence in infected mouse lungs", "conditions": "ETZ treated lungs, 100 mg/kg oral, 4 weeks"}, "PhoPR regulon [2]": {"system": "PhoPR regulon", "assay": "cells", "format": "cell-based, Mycobacterium tuberculosis"}, "Mtb CDC1551(aprA′::GFP)": {"system": "Mtb CDC1551(aprA′::GFP)", "format": "cell-based, Mycobacterium tuberculosis"}, "PhoPR regulon [3]": {"system": "PhoPR regulon", "assay": "RNA-seq transcriptional profiling", "format": "cell-based, Mycobacterium tuberculosis"}, "Mtb lipid synthesis": {"system": "Mtb lipid synthesis", "assay": "Analysis of mycobacterial lipids (14C radio-TLC)", "conditions": "80 μM ETZ"}, "BMDMs": {"system": "BMDMs", "assay": "Phagosome acidification (pHrodo labeled beads in BMDMs)", "conditions": "ETZ up to 100 μM, 4 h pre-treatment, 100 minutes"}, "WT Mtb CDC1551": {"system": "WT Mtb CDC1551", "assay": "Cytoplasmic pH measurement"}, "[4]": {"conditions": "in animals, previously reported, cited from earlier work"}, "Esx-1 protein export": {"system": "Esx-1 protein export", "assay": "Analysis of Esx-1 protein export (Western blot)", "format": "cell-based, Mycobacterium tuberculosis", "conditions": "Mtb Erdman, Sauton's medium, ETZ 80 μM"}, "[5]": {"system": "Mtb-associated granulomatous pneumonia", "assay": "Lung histopathology of infected mice", "conditions": "ETZ 100 mg/kg vs CMC treated animals"}, "PhoPR regulon [6]": {"system": "PhoPR regulon", "assay": "microbe, parasite or virus in culture", "format": "cell-based", "conditions": "Mycobacterium tuberculosis"}, "PhoPR regulon [7]": {"system": "PhoPR regulon", "assay": "Semi-quantitative real-time PCR of phoP, aprA and pks2", "format": "cell-based, Mycobacterium tuberculosis"}},
  "note": "Entries after “also recorded” stand apart in the source; their conditions may differ. Like-named read-outs stand apart in the source and are kept apart here.",
  "data": [
    {"smiles": "CCOc1ccc2nc(S(N)(=O)=O)sc2c1", "note": "[ETZ, 6-ethoxy-1,3-benzothiazole-2-sulfonamide]", "values": [
      {"measurement": "Mtb cells in the bottom decile of GFP fluorescence", "setting": "PhoPR regulon [1]", "value": 49, "unit": "%"},
      {"measurement": "inhibition of reporter GFP fluorescence in infected macrophages", "setting": "PhoPR regulon [2]", "value": "significantly down-regulates"},
      {"measurement": "inhibition at 100 µM", "setting": "PhoPR regulon [2]; Mycobacterium tuberculosis, BMDM, read-out: inhibition of reporter GFP fluorescence in infected macrophages", "value": "> 90", "unit": "%"},
      {"measurement": "effect on growth", "setting": "Mtb CDC1551(aprA′::GFP); pH 5.7, across the range of ETZ concentrations tested", "value": "mostly unaffected; also recorded: little effect on growth"},
      {"measurement": "effect on growth", "setting": "Mtb CDC1551(aprA′::GFP); pH 7.0", "value": "little effect on growth"},
      {"measurement": "down-regulation of espR and the espACD operon", "setting": "PhoPR regulon [3]", "value": "> 1.5", "unit": "fold"},
      {"measurement": "down-regulation of mmpL8-pks2 operon (Rv3823c-Rv3825c)", "setting": "PhoPR regulon [3]; ETZ at acidic pH", "value": "~5", "unit": "fold"},
      {"measurement": "accumulation of sulfolipid (SL)", "setting": "Mtb lipid synthesis", "value": "not detected; also recorded: lack of accumulation"},
      {"measurement": "phagosome acidification", "setting": "BMDMs", "value": "did not alter phagosome acidification"},
      {"measurement": "acidification of cytoplasm", "setting": "WT Mtb CDC1551; ETZ 80 μM, 6 days, medium pH 5.7", "value": "< 0.1", "unit": "pH units"},
      {"measurement": "change of cytoplasmic pH", "setting": "WT Mtb CDC1551; ETZ 80 μM, 6 days, medium pH 7.0", "value": "no change"},
      {"measurement": "acidification of cytoplasmic pH", "setting": "WT Mtb CDC1551; ETZ treated Mtb", "value": "slight acidification"},
      {"measurement": "drug-related organ lesions", "setting": "[4]; 100 mg/kg", "value": "no observable drug-related organ lesions"},
      {"measurement": "LD50", "setting": "[4]", "value": "~1000", "unit": "mg/kg"},
      {"measurement": "half-life", "setting": "[4]", "value": "2.5 to 5.5", "unit": "h"},
      {"measurement": "ESAT-6 and CFP-10 expression", "setting": "Esx-1 protein export", "value": "did not affect"},
      {"measurement": "secretion of ESAT-6 and CFP-10", "setting": "Esx-1 protein export", "value": "strongly and selectively reduced; also recorded: inhibits the secretion"},
      {"measurement": "secretion of Sec-secreted protein Mpt-32", "setting": "Esx-1 protein export", "value": "did not alter"},
      {"measurement": "percent lung area affected (Mtb-associated granulomatous pneumonia)", "setting": "[5]", "value": "did not have a significant reduction; also recorded: no significant difference"},
      {"measurement": "EC50", "setting": "PhoPR regulon [6]; 144 h, pH 5.7, read-out: EC50 of inhibition of CDC1551(aprA′::GFP) reporter fluorescence", "value": 5.6, "unit": "µM"},
      {"measurement": "EC50", "setting": "PhoPR regulon [6]; pH 7, read-out: EC50 of inhibition of aprA′::GFP reporter fluorescence", "value": 4.7, "unit": "µM"},
      {"measurement": "regulation of phoP gene expression", "setting": "PhoPR regulon [7]", "value": "did not exhibit substantial differential regulation"},
      {"measurement": "down-regulation of aprA", "setting": "PhoPR regulon [7]; both pH 7.0 and 5.7", "value": "> 5", "unit": "fold"},
      {"measurement": "down-regulation of pks2", "setting": "PhoPR regulon [7]; both pH 7.0 and 5.7", "value": "> 5", "unit": "fold"}
    ]}
  ]
}
